The values that follow come from ChEMBL document CHEMBL1201862, “PubChem BioAssay data set” (2004).

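96-well plates; 48 h exposure; 5 concentrations. Endpoints by linear interpolation between flanking doses. Not reached: highest tested concentration assigned. Here, GI50 denotes the concentration required for 50% inhibition of growth.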 The source made the active and inactive calls. Rule as the data show it: active = GI50 up to about 1.1 µM and inactive = higher.

Test in all cases: NCI tumour cell line growth inhibition, 48 h
Test [1] deals with EKVX.
In test [2] the test system is T47D.
The subject of test [3] is SK-OV-3.
For test [4], the system named is OVCAR-5.
The subject of test [5] is MCF7.
Test [6] has as its system MOLT-4.
The test system of test [7] is OVCAR-3.
Test [8] deals with NCI/ADR-RES.
The test system of test [9] is DU-145.
The test system of test [10] is RXF 393.
The test system of test [11] is SF-268.
Test [12] relates to MDA-MB-435.
In test [13] the test system is M14.
The subject of test [14] is UO-31.
The subject of test [15] is HCT-15.
The test system of test [16] is SNB-78.
For test [17], the system named is 786-0.
Test [18] has as its system A549.
Test [19] deals with HCC 2998.
Test [20] deals with SN12C.

With `O=C1C2CCN(CC2)C1CN1CCOCC1` (stereo not given), the GI50 is 17.8 µM (inactive) in test [1]; 1.92 µM (inactive) in test [2]; 17.2 µM (inactive) in [3]; 5.53 µM (inactive) in [4]; 2.9 µM (inactive) in [5]; 2.33 µM (inactive) in [6]. For the same compound, the GI50 was 2.14 µM (inactive) in test [7]; 1.96 µM (inactive) in test [8]; 6.47 µM (inactive) in [9]; 2.25 µM (inactive) in test [10]; 13.7 µM (inactive) in test [11]; 15.5 µM (inactive) in test [12]. The GI50 in test [13] is 2.96 µM (inactive); in test [14], 3.84 µM (inactive); in test [15], 2.18 µM; in [16], 20.7 µM (inactive); in test [17], 1.93 µM (inactive); in [18] it was 19.7 µM (inactive). The GI50 in test [19] is 15.7 µM (inactive); in [20], 4.05 µM (inactive).
Regarding `CC(=O)OCc1cc2c(s1)C(=O)c1sccc1C2=O`, the GI50 was 0.197 µM (active) in test [1]; 0.309 µM (active) in test [2]; 1.72 µM (inactive) in test [3]; 0.19 µM (active) in test [4]; 0.208 µM (active) in test [5]; 0.356 µM (active) in test [6]. The GI50 was 0.223 µM (active) in test [7]; 0.2 µM (active) in [8]; 0.0336 µM (active) in test [9]; 0.157 µM (active) in test [10]; 0.154 µM (active) in test [11]; 0.0178 µM (active) in [12]. The GI50 is < 0.0139 µM (active) in [13]; 0.178 µM (active) in [14]; 0.156 µM in test [15]; 13.2 µM (inactive) in test [16]; 0.619 µM (active) in test [17]; 0.181 µM (active) in test [18]. Also, the GI50 in test [19] was 1.78 µM (inactive); in [20], 0.13 µM (active).
As for `CC(C)Cn1cnc2c(Sc3c([N+](=O)[O-])ncn3C)nc(N)nc21`, the GI50 in [1] was > 50.8 µM (inactive); in [2], 30.4 µM (inactive); in [3] it was > 100 µM (inactive); in test [4], > 100 µM (inactive); in test [5] it was 27.6 µM (inactive); in test [6], > 42.2 µM (inactive). Moreover, the GI50 in test [7] was > 35 µM (inactive); in test [8], > 100 µM (inactive); in test [9], 28.5 µM (inactive); in [10] it was > 56.1 µM (inactive); in test [11], > 100 µM (inactive); in test [12] it was 37.5 µM (inactive). Besides, the GI50 was > 52.2 µM (inactive) in test [13]; > 38 µM (inactive) in [14]; more than 59.8 µM in test [15]; > 100 µM (inactive) in test [16]; > 61 µM (inactive) in test [17]; > 67.9 µM (inactive) in [18]. Further, the GI50 is > 62.7 µM (inactive) in test [19] and > 64.6 µM (inactive) in test [20].
